Experiment [1] deals with T1, MMP-12 (Homo sapiens, UniProt P39900). Briefly: MMP-12 Fluorometric Drug Discovery Kit inhibition assay. The format is biochemical. Also on record: purchased Enzo Life Sciences Inc., Farmingdale, N.Y., USA. The note with it: read-out: % Inhibition after 20 min. An excerpt: The MMP-12 inhibitor activity was quantified by fluorometric analysis using the MMP-12 Fluorometric Drug Discovery Kit (Enzo Life Sciences Inc., Farmingdale, N.Y., USA) according to the manufacturers' instructions.
Target sequence in this assay (P39900 106-263 limits assumed): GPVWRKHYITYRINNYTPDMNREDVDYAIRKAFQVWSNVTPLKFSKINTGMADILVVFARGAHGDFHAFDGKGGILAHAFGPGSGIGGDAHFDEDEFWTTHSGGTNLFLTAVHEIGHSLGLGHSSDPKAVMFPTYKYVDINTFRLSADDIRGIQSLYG

Experiment [2] addresses T1, MMP-12. Briefly: Inhibition of MMP-12 degradation of elastin fibers produced by human dermal fibroblasts. The format is cell-based. Conditions: MMP-12 200 U/ml, 2 hrs at 37° C. As to the method:
Human dermal fibroblasts were pre-cultured in DMEM, 10% FCS, 1% P/S for 48 hrs before starving them in DMEM, 0.2% FCS, 1% P/S for 24 hrs. To induce elastin fiber production TGFb1 (10 ng/ml) was added and incubated for 5 days. After incubation with TGFb1, medium was carefully discarded and cells were washed with assay buffer (HBSS, […] HEPES). In the meantime MMP-12 (200 U/ml) and compounds were mixed in assay buffer and allowed to interact for 30 min. This mixture was then added to the cells and incubated for 2 hrs at 37° C.
Cells were then fixed with ice-cold methanol for 5 min and rehydrated by PBS. Unspecific sites were blocked with 1% BSA in PBS for 1 h at room temperature. Elastin fibers were detected using a primary antibody against elastin and the first antibody was detected with AlexaFluor 488 conjugated secondary antibody. Finally, nuclei were counterstained with DAPI. Stained cells were analyzed with the Thermo Scientific ArrayScan XTI Live High Content Platform. 49 pictures per well were acquired with a 20× objective and as readout we used the area covered by the elastin fibers. % of inhibition of elastin fiber degradation was calculated the following way: % protection of elastin fiber network degradation=100−[(max area−min area)/(max area inhibitor area)*100] in which max area=area covered by elastin fibers of untreated control cells min area=area covered by elastin fibers of MMP12 treated cells inhibitor area=area covered by elastin fibers of MMP12 and inhibitor treated cells.
Target sequence in this assay (P39900 106-470, species assumed): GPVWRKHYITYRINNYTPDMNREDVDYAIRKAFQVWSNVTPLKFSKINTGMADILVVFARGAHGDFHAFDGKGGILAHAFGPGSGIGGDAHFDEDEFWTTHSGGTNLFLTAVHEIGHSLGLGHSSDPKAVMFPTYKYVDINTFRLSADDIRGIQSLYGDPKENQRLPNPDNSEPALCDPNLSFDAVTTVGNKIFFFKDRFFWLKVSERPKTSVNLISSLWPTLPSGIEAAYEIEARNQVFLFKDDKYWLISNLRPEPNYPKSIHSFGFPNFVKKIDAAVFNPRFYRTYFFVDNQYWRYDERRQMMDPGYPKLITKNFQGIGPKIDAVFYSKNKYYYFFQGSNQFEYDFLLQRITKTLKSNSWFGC

Another experiment concerns Human skin. Nature of the experiment: Total dermal elastin after UV-irradiation of cultured human skin samples. The note with it: concentration 100 [μm]; for Increase vs. untreated-UV: day 6, (Dermal elastin sample − Dermal Elastin UV)/Dermal Elastin UV * 100%; for Dermal elastin: topical twice a day, daily 45 J/cm^2 UVA, day 6, papillary dermis, non-UV treated sample = 100%. Here is the method: Human skin from abdominal plastic surgery classified as “Intermediate” (ITA° angle=53°) has been used. The skin samples were cut in pieces of approx. 8×3 mm (ø×thickness) and cultured up to day 6 in an air-liquid interface in a perforated ring of stainless steel in contact with a culture medium (modified Williams'E medium), the culture medium was renewed every three days. Eight skin specimens were used for each treatment. Each test sample (4 μl) was topically applied twice a day, immediately after UV irradiation and renewed 4 hours later top of each piece after gentle cleaning of the surface with a cotton pad followed by covering with a 6 ømm delivery membrane, which procedure was repeated daily. The samples were irradiated daily with 800% of the Biological Effective Dose of daylight (BED; Del Bino et al, Pigment Cell research, 19, 2006) equal to a dose of 45 J/cm^2 UVA using an adopted BIO-SUN system (Vilber Lourmat). At day 6 twelve skin sections were immunostained with mouse monoclonal anti-Elastin antibody (Sigma cat#E4013). The papillary dermis is selected for the analysis. The evaluation has been performed by estimating both color intensity and distribution with IMAGE J (NIH) analysis software Two slides of each skin sample have been processed by image acquisition and related analysis (i.e. 12 images for each treatment). The score of the dermal Elastin of the non-UV treated sample was set to 100%.

What is called inhibition is the relative decrease from the control value, in per cent.

Regarding `COC(=O)[C@H](Cc1csc2ccccc12)NC(=O)[C@H](Cc1ccc(-c2ccccc2)cc1)CP(=O)(O)CCc1ccccc1` [(I)-A], at MMP-12 [1], the inhibition at 0.5 µM worked out at 75%, the inhibition at 1 µM was 82% and the inhibition at 10 µM worked out at 92%.

With `CCC(C)C(NC(=O)C(Cc1ccc(-c2ccccc2)cc1)CP(=O)(O)CCc1ccccc1)C(=O)O` (stereo not drawn) [(I)-e, 2-(3-([1,1′-biphenyl]-4-yl)-2-((hydroxy(phenethyl)phosphoryl)methyl)propanamido)-3-methylpentanoic acid], the “% protection of elastin fiber network degradation” value came to 12.44% on MMP-12 [2] (0.05 μM), 68.17% on MMP-12 [2] (1 μM) and 83.73% at MMP-12 [2] (20 μM).

For the molecule `CC(NC(=O)C(Cc1ccc(-c2ccccc2)cc1)CP(=O)(O)CCc1ccccc1)C(=O)O` (stereo not drawn) [(I)-m, (3-([1,1′-biphenyl]-4-yl)-2-((hydroxy(phenethyl)phosphoryl)methyl)propanoyl)alanine], in the experiment on Human skin, the “Increase vs. untreated-UV” value was “+30%” and the Dermal elastin amounted to 106%.

On to `CCCC[C@H](NC(=O)[C@H](Cc1ccc(-c2ccccc2)cc1)CP(=O)(O)CCc1ccccc1)C(=O)OC` [(I)-H], for which, at MMP-12 [1], the inhibition at 0.5 µM was 83%, the inhibition at 1 µM came out at 89% and the inhibition at 10 µM is 91%.

Regarding `NC(=O)C[C@H](NC(=O)[C@H](Cc1ccc(-c2ccccc2)cc1)CP(=O)(O)CCc1ccccc1)C(=O)O` [(I)-O], the inhibition at 10 µM on MMP-12 [1] came out at 88%.

`CC[C@@H](C)[C@H](NC(=O)[C@H](Cc1ccc(-c2ccccc2)cc1)CP(=O)(O)CCc1ccccc1)C(=O)OC(C)(C)C` [(I)-U, ((S)-2-([1,1′-biphenyl]-4-ylmethyl)-3-(((2S,3R)-1-(tert-butoxy)-3-methyl-1-oxopentan-2-yl)amino)-3-oxopropyl)(phenethyl)phosphinic acid]: the inhibition at 10 µM on MMP-12 [1] is 72%.

Consider `CC(C)(C)OC(=O)[C@H](Cc1cn(C(=O)OC(C)(C)C)c2ccccc12)NC(=O)C(Cc1ccc(-c2ccccc2)cc1)CP(=O)(O)CCc1ccccc1` (stereo partly drawn) [(I)-R], for which the inhibition at 10 µM at MMP-12 [1] came to 82%.

Take `O=C(O)CCCNC(=O)C(Cc1ccc(-c2ccccc2)cc1)CP(=O)(O)CCc1ccccc1` (stereo not drawn) [(I)-L]: at MMP-12 [1], the inhibition at 0.5 µM stood at 75%, the inhibition at 1 µM is 82% and the inhibition at 10 µM was 90%.

Turning to `CCCCC(NC(=O)C(Cc1ccc(-c2ccccc2)cc1)CP(=O)(O)CCc1ccccc1)C(=O)O` (stereo not drawn) [(I)-k, 2-(3-([1,1′-biphenyl]-4-yl)-2-((hydroxy(phenethyl)phosphoryl)methyl)propanamido)hexanoic acid], in the experiment on Human skin, the “Increase vs. untreated-UV” value is recorded as “+54%” and the Dermal elastin was found to be 125%.

`O=C(NC(Cc1c[nH]c2ccccc12)C(=O)O)C(Cc1ccc(-c2ccccc2)cc1)CP(=O)(O)CCc1ccccc1.O=C(O)C(F)(F)F` (stereo not drawn) [(I)-c, (3-([1,1′-biphenyl]-4-yl)-2-((hydroxy(phenethyl)phosphoryl)methyl)propanoyl)tryptophan compound with 2,2,2-trifluoroacetic acid (1:1)]: in the experiment on Human skin, the “Increase vs. untreated-UV” value is recorded as “+52%” and the Dermal elastin was found to be 123%.

Consider `CC[C@@H](C)[C@H](NC(=O)[C@@H](Cc1ccc(-c2ccccc2)cc1)CP(=O)(O)CCc1ccccc1)C(=O)OC(C)(C)C` [(I)-T, ((R)-2-([1,1′-biphenyl]-4-ylmethyl)-3-(((2S,3R)-1-(tert-butoxy)-3-methyl-1-oxopentan-2-yl)amino)-3-oxopropyl)(phenethyl)phosphinic acid], for which, at MMP-12 [1], the inhibition at 10 µM came out at 75%.

Consider `CCC(C)[C@H](NC(=O)[C@H](Cc1ccc(-c2ccccc2)cc1)CP(=O)(O)CCc1ccccc1)C(=O)O` (stereo partly drawn) [(I)-B], for which, on MMP-12 [1], the inhibition at 0.5 µM amounted to 94%, the inhibition at 1 µM amounted to 94% and the inhibition at 10 µM is 92%.

In the case of `O=C(N[C@@H](Cc1ccc2ccccc2c1)C(=O)OCc1ccccc1)[C@H](Cc1ccc(-c2ccccc2)cc1)CP(=O)(O)CCc1ccccc1` [(I)-Q], on MMP-12 [1], the inhibition at 10 µM was 83%.

As to `COC(=O)[C@@H](NC(=O)[C@H](Cc1ccc(-c2ccccc2)cc1)CP(=O)(O)CCc1ccccc1)C1CCCCC1` [(I)-S, ((S)-2-([1,1′-biphenyl]-4-ylmethyl)-3-(((S)-1-cyclohexyl-2-methoxy-2-oxoethyl)amino)-3-oxopropyl)(phenethyl)phosphinic acid], the inhibition at 10 µM at MMP-12 [1] was found to be 82%.

Regarding `NC(=O)C[C@H](NC(=O)[C@@H](Cc1ccc(-c2ccccc2)cc1)CP(=O)(O)CCc1ccccc1)C(=O)O` [(I)-I], at MMP-12 [1], the inhibition at 0.5 µM is 84%, the inhibition at 1 µM was 89% and the inhibition at 10 µM is 90%.

As to `COC(=O)C(C)(C)NC(=O)C(Cc1ccc(-c2ccccc2)cc1)CP(=O)(O)CCc1ccccc1` (stereo not drawn) [(I)-V, (2-([1,1′-biphenyl]-4-ylmethyl)-3-((1-methoxy-2-methyl-1-oxopropan-2-yl)amino)-3-oxopropyl)(phenethyl)phosphinic acid], the inhibition at 10 µM on MMP-12 [1] came out at 61%.

Regarding `O=C(N[C@@H](Cc1c[nH]c2ccccc12)C(=O)O)[C@@H](Cc1ccc(-c2ccccc2)cc1)CP(=O)(O)CCc1ccccc1` [(I)-K], on MMP-12 [1], the inhibition at 0.5 µM came out at 69%, the inhibition at 1 µM was found to be 79% and the inhibition at 10 µM came out at 90%.

Turning to `CC[C@H](NC(=O)[C@H](Cc1ccc(-c2ccccc2)cc1)CP(=O)(O)CCc1ccccc1)C(=O)OC(C)(C)C` [(I)-P], the inhibition at 10 µM at MMP-12 [1] came out at 88%.

Turning to `CCCC[C@H](NC(=O)[C@@H](Cc1ccc(-c2ccccc2)cc1)CP(=O)(O)CCc1ccccc1)C(=O)O` [(I)-N], the inhibition at 10 µM at MMP-12 [1] turned out to be 89%.

Regarding `C[C@H](NC(=O)[C@H](Cc1ccc(-c2ccccc2)cc1)CP(=O)(O)CCc1ccccc1)C(=O)O` [(I)-J], on MMP-12 [1], the inhibition at 0.5 µM is 93%, the inhibition at 1 µM was found to be 94% and the inhibition at 10 µM came out at 90%.

As for `O=C(N[C@@H](Cc1ccc2ccccc2c1)C(=O)O)[C@@H](Cc1ccc(-c2ccccc2)cc1)CP(=O)(O)CCc1ccccc1` [(I)-G], on MMP-12 [1], the inhibition at 0.5 µM turned out to be 78%, the inhibition at 1 µM worked out at 85% and the inhibition at 10 µM came to 91%.

For the molecule `COC(=O)[C@H](CCNC(=O)OC(C)(C)C)NC(=O)[C@@H](Cc1ccc(-c2ccccc2)cc1)CP(=O)(O)CCc1ccccc1` [(I)-D], on MMP-12 [1], the inhibition at 0.5 µM was found to be 85%, the inhibition at 1 µM came out at 90% and the inhibition at 10 µM was 91%.

As for `O=C(N[C@@H](Cc1c[nH]c2ccccc12)C(=O)O)[C@H](Cc1ccc(-c2ccccc2)cc1)CP(=O)(O)CCc1ccccc1` [(I)-C], at MMP-12 [1], the inhibition at 0.5 µM was found to be 93%, the inhibition at 1 µM was found to be 94% and the inhibition at 10 µM was determined as 92%.

On to `O=C(N[C@@H](Cc1csc2ccccc12)C(=O)O)[C@@H](Cc1ccc(-c2ccccc2)cc1)CP(=O)(O)CCc1ccccc1` [(I)-M], for which, at MMP-12 [1], the inhibition at 0.5 µM is 52%, the inhibition at 1 µM amounted to 64% and the inhibition at 10 µM worked out at 89%.

As to `CC(C)C[C@H](NC(=O)[C@H](Cc1ccc(-c2ccccc2)cc1)CP(=O)(O)CCc1ccccc1)C(=O)OC(C)(C)C` [(I)-F], on MMP-12 [1], the inhibition at 0.5 µM is 73%, the inhibition at 1 µM is 82% and the inhibition at 10 µM came to 91%.

These data come from patent publication US10179797B2, “Phosphinic peptide derivatives for use as MMP-12 inhibitors” (DSM IP ASSETS B.V., priority 2015, dated 2019).
